In article PMC3222276 (ACS chemical biology, 2010):

What was measured:
cathepsin B = cathepsin B (Homo sapiens, UniProt P07858); test: Inhibition of recombinant cathepsin B; conditions: read-out: Cathepsin B IC50; enzyme 360nM, substrate 50μM, pH 6.25, 30min
cathepsin L = cathepsin L (Homo sapiens, UniProt P07711); test: Inhibition of recombinant cathepsin L; conditions: read-out: Cathepsin L IC50; enzyme 100nM, substrate 10μM, pH 6.25, 30min
Chain of cathepsin L (P07711 114-333, species assumed): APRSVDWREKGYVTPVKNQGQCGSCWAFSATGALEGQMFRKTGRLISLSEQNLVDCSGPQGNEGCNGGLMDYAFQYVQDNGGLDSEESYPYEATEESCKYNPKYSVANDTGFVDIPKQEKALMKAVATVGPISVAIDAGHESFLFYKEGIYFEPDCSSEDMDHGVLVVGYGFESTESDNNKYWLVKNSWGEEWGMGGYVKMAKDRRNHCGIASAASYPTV

- IC50 (cathepsin B): 0.78 µM
- IC50 (cathepsin L): 2.98 µM
Substance: JPM-OEt
